Assay results taken from patent US20060019971A1, “Treatment of cardiovascular disease with inhibitors of p38 kinase” (priority 2003, published 2006).

B1: CRP: purified human CRP (Calbiochem), stimulus applied at 10 μg/ml to HPBMCs (protein, UniProt P02741 19-224, looked up)
C-reactive protein: QTDMSRKAFVFPKESDTSYVSLKAPLTKPLKAFTVCLHFYTELSSTRGYSIFSYATKRQDNEILIFWSKDIGYSFTVGGSEILFEVPEVTVAPVHICTSWESASGIVEFWVDGKPRVRKSLKKGYTVGAEASIILGQEQDSFGGNFEGSQSLVGDIGNVNMWDFVLSPDEINTIYLGGPFSPNVLNWRALKYEVQGEVFTKPQLWP

How the values were obtained:
p38 MAP kinase = molecular target: T1, p38 MAP kinase (Homo sapiens, UniProt Q16539); assay: p38 MAP kinase phosphorylation assay (similar to Kumar); format: biochemical; conditions: assay similar to the phosphorylation assay (Kumar)
T1 construct: expressed in transfected cells; kinase immunoprecipitated from lysates
Procedure: Alternative assays involving in vitro analysis of potential inhibitors include those where cells (HeLa) transfected with DNA coding for relevant kinases can be activated with substances such as sorbitol, IL-1, TNF, or PMA (phorbol myristate acetate). After immunoprecipitation of cell lysates, equal aliquots of immune complexes of the kinases are pre-incubated for an adequate time with a specific concentration of the potential inhibitor followed by addition of kinase substrate buffer mix containing labeled ATP and GST-ATF2 or MBP. After incubation, kinase reactions are ceased by the addition of SDS loading buffer. Phosphorylated substrate is resolved through SDS-PAGE and visualized and quantitated in a phosphorimager. Both p38 regulation, in terms of phosphorylation, and IC50 values can be determined by quantitation. See, for example Kumar,S., McDonnell, P., Gum, R., Hand, A., Lee, J., and Young, P. (1997) Biochem. Biophys. Res. Commun. 235, 533-538.

ET-1 mRNA in HPBMCs = assay: ET-1 gene expression in HPBMCs, real-time PCR; format: cell-based, human; conditions: 10 μg/ml CRP added to 10% FCS, HPBMCs, 6 hours
Procedure: 5×10^6 HPBMCs were plated in 6-well. After 1 hour medium was removed and cells were treated with vehicle or 1 μM P38 INHIBITOR in RPMI 1640 medium. After 1 hour cells were stimulated with 10% FCS only or 10 μg/ml CRP plus 10% FCS. After 6 hours RNA was extracted from the cells and ET-1 gene expression level was determined by real-time PCR as described in the Experimental section.
Cryopreserved human peripheral blood monocytes (HPBMCs, from Biowitker, Walkersvill, Md.) were thawed and washed twice in RPMI 1640. Cells were plated in tissue culture plates and incubated in 5% CO2 at 37 C. After 1 hr media were removed and cells were treated with various treatments. After 2 to 20 hours conditioned media and/or cell lysates were collected for the analyses of secreted cytokines, protein or mRNA expression. 10 μg/ml of purified human CRP (Calbiochem, San Diego, Calif.) was used in most of the treatments. In some experiments fetal calf serum (FCS from ATCC) was added to a final concentration of 10% together with CRP. In the examples provided herein, including those assessing the effects of p38 antagonism, cells were pre-treated with SD, a p38 small molecule inhibitor (Compound 162 in Table A) for 1 hour prior to CRP treatment as described above. In a parallel series of experiments, the effect of vehicle (DMSO) was tested. For TaqMan analyses of various gene expression cells were lysed in ice-cold RLT lysis buffer (Qiagen, Valencia, Calif.) and the lysates were kept in −80° C. until the analyses. […]
RNA was extracted from the cells using Qiagen RNA extraction kit according to the manufacturer's instruction. The expression of pro-inflammatory genes IL-1β, IL-6, IL-8, TNFα, COX-2, ET-1, TF were assessed by real-time PCR. […]
Real-time RT-PCR was performed in a two-step manner. cDNA synthesis and real-time detection were carried out in a PTC-100™ Thermal Cycler (MJ Research Inc, Waltham, Mass.) and an ABI Prism™ 7700 Sequence Detection System (Applied Biosystems, Foster City, Calif.), respectively. […] Relative quantitation of gene expression was performed using the relative standard curve method. […]

T1 sequence (Q16539 whole entry): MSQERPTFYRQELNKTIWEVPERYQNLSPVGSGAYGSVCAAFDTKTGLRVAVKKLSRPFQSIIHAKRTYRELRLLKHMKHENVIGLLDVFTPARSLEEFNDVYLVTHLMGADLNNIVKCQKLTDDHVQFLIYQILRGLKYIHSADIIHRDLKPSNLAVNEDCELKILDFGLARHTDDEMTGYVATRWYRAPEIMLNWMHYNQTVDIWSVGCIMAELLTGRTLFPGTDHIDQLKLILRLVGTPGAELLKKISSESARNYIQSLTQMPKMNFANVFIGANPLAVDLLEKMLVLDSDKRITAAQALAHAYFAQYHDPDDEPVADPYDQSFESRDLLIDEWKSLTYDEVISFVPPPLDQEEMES

Row | Molecule | p38 MAP kinase activity (p38 MAP kinase) | augmentation of ET-1 gene expression (ET-1 mRNA in HPBMCs)
1 | Cn1cc(C(=O)C(=O)N2CCCC2)c2cc(C(=O)N3CCC(Cc4ccc(F)cc4)CC3)c(Cl)cc21 [Compound 84] | exhibit p38 MAP kinase activity | 
2 | C[C@@H]1CN(Cc2ccc(F)cc2)[C@@H](C)CN1C(=O)c1cc2c(C(=O)C(=O)N3CCOCC3)cn(C)c2cc1Cl [Compound 96] | exhibit p38 MAP kinase activity | 
3 | Cc1[nH]c2cc(Cl)c(C(=O)N3CCC(Cc4ccc(F)cc4)CC3)cc2c1C(=O)C(=O)N1CCN(C)CC1 [Compound 169] | exhibit p38 MAP kinase activity | 
4 | COc1cc2c(cc1C(=O)N1CCC(=Cc3ccc(F)cc3)CC1)c(C(=O)C(=O)N(C)C)cn2C [Compound 67] | exhibit p38 MAP kinase activity | 
5 | COc1cc2c(cc1C(=O)N1CCC(Cc3ccc(F)cc3)CC1)c(C(=O)C(=O)O)cn2C [Compound 2] | exhibit p38 MAP kinase activity | 
6 | COCn1cc(C(=O)C(=O)N(C)C)c2cc(C(=O)N3C[C@H](C)N(Cc4ccc(F)cc4)C[C@H]3C)c(OC)cc21 [Compound 92] | exhibit p38 MAP kinase activity | 
7 | COc1cc2[nH]cc(C(=O)C(=O)N3CCOCC3)c2cc1C(=O)N1CCC(Cc2ccc(F)cc2)CC1 [Compound 141] | exhibit p38 MAP kinase activity | 
8 | COc1cc2[nH]cc(C(=O)C(=O)N(C)C)c2cc1C(=O)N1CC(C)N(Cc2ccc(F)cc2)CC1C (centres unmarked) [Compound 154] | exhibit p38 MAP kinase activity | 
9 | COc1cc2c(cc1C(=O)N1C[C@H](C)N(Cc3ccc(F)cc3)C[C@@H]1C)c(C(=O)C(=O)N(C)C)cn2C [Compound 15] | exhibit p38 MAP kinase activity | 
10 | COc1cc2c(cc1C(=O)N1CCC(Cc3ccc(F)cc3)CC1)c(C(=O)C(=O)N1CCN(C)CC1)cn2C [Compound 3] | exhibit p38 MAP kinase activity | 
11 | B1 |  | 1.7 fold
